Columns and labels:
[1] = Free radical scavenger, SOD mimetic activity (xanthine/xanthine oxidase/NBT); assay type: biochemical; settings: reference agents; read-out: Concentration at 50 % Inhibition
Experimental: Conversion of xanthine to uric acid+O^−+NBT to formazan was then determined by measurement of absorbance at 595 nm and percent inhibition by superoxide dismutase or test compound was calculated.

chondrocyte = settings: Okazaki M, Osteoarthritis Cartilage 2003; cited from earlier work
[2] = test system: bone marrow mesenchymal stem cells; assay: Micromass culture of bone marrow mesenchymal stem cells, staining for ALP, collagen and GAGs; assay type: cell-based, human; settings: 1 mM
Experimental: Herbal preparations were treated to cells grown in the induction medium in micromass culture for two weeks.
Human bone marrow mesenchymal stem cells were obtained from patients receiving total joint replacement with consent. The cells were cultured in DMEM containing 10% fetal calf serum (FCS), and 25 ug/ml Gentamicin (Gibco, Grand Island, N.Y.) (C-DMEM) at 37° C. under humidified atmosphere containing 5% CO2.
(§1) Ten ul of 1×10^7 cells in C-DMEM was seeded into the center of each well of 48 multiwell culture dish (Nunc, Roskilde, Danmark). Two hours later, 250 ul of F12/DMEM containing 5% FCS, 6.25 ug/ml bovine insulin, 25 ug/ml ascorbic acid and 100 nM Dexamethasone (induction medium) with various concentrations of herbal combinations or glucosamine (Sigma) was added. The media were changed twice a week for two weeks. At the end of the incubation, the media were changed with fresh DMEM. Twenty-four hours later, the media were collected for MMP zymography study and cells were fixed and stained for alkaline phosphatase (ALP), collagen or glycosaminoglycan using Naphthol AS-MX phosphate/Fast red, Sirius red, or Safranin O (Sigma), respectively.

MMP-2 = MMP-2 activities of chondrocyte culture supernatants by zymography; assay type: cell-based, human
Experimental: Confluent cells were treated with various herbal combinations in F12/DMEM containing 5% FCS, 6.25 ug/ml bovine insulin, 25 ug/ml ascorbic acid and 100 nM Dexamethasone for 2 weeks with medium changed twice a week. At the end of each treatment, cells were washed with PBS and incubated in DMEM overnight. Cells were then exposed to fluid-induced shear stress by a custom-made cone viscometer at the rate of 100 rpm for 2 hours. The shear stress induced at this speed was 0.82 Pa (8.2 dyn/cm^2). Aliquots of culture medium were collected at designated time for nitric oxide measurement and MMP zymography analysis. Another set of cells was treated similarly without shearing as the control.
Equal amount of protein of each culture medium was mixed with equal volume of 2× non-reducing SDS sample buffer, and incubated at room temperature for two hours for sample to denature. The samples were loaded into each well of a 10% SDS polyacrylamide gel containing 1 mg/ml of bovine gelatin (Sigma), and run at 20 mA in ice bath by a BioRad Mini Protean gel apparatus. After dye front reached the bottom of the gel, the gel was washed three times, 15 minutes each, with 2.5% Triton X-100. Then, the gel was renatured in developing buffer (50 mM Tris-HCl, pH7.6, 10 mM CaCl2, 50 mM NaCl, 0.05% Brij35) at 37° C. for 48 hours. […]

TIMP = TIMP activities of chondrocyte culture supernatants by reverse zymography; assay type: cell-based, human; settings: non-sheared
Experimental: Confluent cells were treated with various herbal combinations in F12/DMEM containing 5% FCS, 6.25 ug/ml bovine insulin, 25 ug/ml ascorbic acid and 100 nM Dexamethasone for 2 weeks with medium changed twice a week. At the end of each treatment, cells were washed with PBS and incubated in DMEM overnight. Cells were then exposed to fluid-induced shear stress by a custom-made cone viscometer at the rate of 100 rpm for 2 hours. The shear stress induced at this speed was 0.82 Pa (8.2 dyn/cm^2). […] Another set of cells was treated similarly without shearing as the control.
Equal amount of protein of each culture medium was mixed with equal volume of 2× non-reducing SDS sample buffer, and incubated at room temperature for two hours for sample to denature. The samples were loaded into each well of a 10% SDS polyacrylamide gel containing 1 mg/ml of bovine gelatin (Sigma) and 1 ml serum free 24 hour's culture supernatant of human foreskin dermal fibroblast which expressed MMP, and run at 20 mA in ice bath by a BioRad Mini Protean gel apparatus. After dye front reached the bottom of the gel, the gel was washed three times, 15 minutes each, with 2.5% Triton X-100. Then, the gel was renatured in developing buffer (50 mM Tris-HCl, pH7.6, 10 mM CaCl2, 50 mM NaCl, 0.05% Brij35) at 37° C. for 48 hours. […]

chondrocytes [3] = assay: Nitric oxide determination (Griess) after fluid induced shear stress; assay type: cell-based, human; settings: for NO Concentration: pretreated two weeks, 0.01 mg/ml or glucosamine 1 mM
chondrocytes [4] = assay: Micromass culture of chondrocytes, herbal preparations in combination with glucosamine; assay type: cell-based, human
Experimental: Expression was measured on micromass culture after cells grown for two weeks. Induction medium alone (left); with 0.1 mM glucosamine (middle); with 1 mM glucosamine (right). […] All the preparations were at 0.01 mg/ml. Row A, B: alkaline phosphatase (ALP) stained by Naphthol AS-MX phosphate/Fast red; row C, D: collagen stained by Sirius red; row E, F: glycosaminoglycans stained by Safranin O.
(§2) Human articular cartilage was obtained from patients who received total joint replacement with consent. The cartilage was digested with 1 mg/ml of Class 2 and Class 4 bacterial collagenase (Worthington Chemical, Freehold, N.J.) in DMEM containing 10% fetal calf serum (FCS) and 25 ug/ml Gentamicin (Gibco, Grand Island, N.Y.) (C-DMEM) at 37° C. overnight. The primary cells were plated at high density in 10 mm culture dish (Nunc, Roskilde, Danmark) in C-DMEM and cultured under humidified atmosphere containing 5% CO2 at 37° C.
as §1

chondrocytes [5] = assay: Micromass culture of chondrocytes, staining for ALP, collagen and GAGs; assay type: cell-based, human; settings: 1 mM, two weeks
Experimental: Cells were grown for two weeks before measuring. […] Row A, B: alkaline phosphatase (ALP) stained by Naphthol AS-MX phosphate/Fast red; row C, D: collagen stained by Sirius red; row E, F: glycosaminoglycan stained by Safranin O.
as §2, §1

chondrocytes [6] = assay: Gene expressions (RT-PCR) of shear-stressed vs. non-shear-stressed chondrocytes; assay type: cell-based, human; settings: for Col I expression: glucosamine 1 mM
Experimental: Confluent cells were treated with various herbal combinations in F12/DMEM containing 5% FCS, 6.25 ug/ml bovine insulin, 25 ug/ml ascorbic acid and 100 nM Dexamethasone for 2 weeks with medium changed twice a week. At the end of each treatment, cells were washed with PBS and incubated in DMEM overnight. Cells were then exposed to fluid-induced shear stress by a custom-made cone viscometer at the rate of 100 rpm for 2 hours. The shear stress induced at this speed was 0.82 Pa (8.2 dyn/cm^2). […] Another set of cells was treated similarly without shearing as the control. The cells were washed with PBS, and RNA was extracted by Tri-Reagent (Sigma).
The RNA of cells was extracted with Tri-Reagent (Sigma). 800 ng of total RNA was reverse transcribed by Omniscript reverse transcriptase (Qiagen, Valencia, Calif.) in buffer containing 1 uM random primer, 0.5 mM each of dNTP, and 10 units of ribonuclease inhibitor. Reverse transcription was carried out at 37° C. for one hour by a programmable thermal controller (PTC-100, MJ Research, Inc., Watertown, Mass.). Reaction was terminated by raising the temperature to 93° C. for five minutes.
PCR was performed in a thermal controller (PTC-100, MJ Research, Inc., Watertown, Mass.) with master mix (HotStarTaq DNA polymerase, Qiagen) at initial denaturation at 95° C. for 15 minutes, followed by 25 cycles of 94° C. for 1 minute, 58° C. for 40 seconds, and 72° C. for 40 seconds. The final cycle extended 72° C. for 10 minutes. The PCR products accompanied by 100 bp ET marker were separated by 1.2% agarose gel, stained with ethidium bromide and visualized under UV light. A Polaroid picture was taken by Foto/Phoresis UV documentation system (Fotodyne Inc.). Beta-actin expression under the same experimental conditions was used as a reference to normalize the expressions.

[7] = biological target: T1, MMP-8 (collagenase-2, stimulated human neutrophils) (Homo sapiens, UniProt P22894); assay: MMP-8 enzymatic assay; assay type: biochemical; settings: reference agents; read-out: Concentration at 50 % Inhibition
T1 construct: purchased Calbiochem 444229; host or cells: natural protein from stimulated human neutrophils
T1 sequence (P22894 101-467): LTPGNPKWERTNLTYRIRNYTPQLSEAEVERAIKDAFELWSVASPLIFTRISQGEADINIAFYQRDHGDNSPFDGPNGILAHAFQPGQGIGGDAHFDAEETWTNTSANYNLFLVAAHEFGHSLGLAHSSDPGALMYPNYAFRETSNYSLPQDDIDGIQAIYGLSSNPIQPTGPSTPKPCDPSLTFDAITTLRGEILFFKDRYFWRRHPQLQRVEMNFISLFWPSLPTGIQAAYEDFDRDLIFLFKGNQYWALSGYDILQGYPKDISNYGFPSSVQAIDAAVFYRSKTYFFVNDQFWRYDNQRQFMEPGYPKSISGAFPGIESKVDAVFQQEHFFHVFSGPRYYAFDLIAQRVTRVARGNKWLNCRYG
Experimental: MMP-8 (collagenase-2, stimulated human neutrophils, Calbiochem Cat. 444229) was activated by p-aminophenylmercuric acetate for 60 minutes at 37° C. […] Enzyme activity was determined spectrofluorometrically by measuring the formation of fluorescent (7-methoxycoumarin-4-yl) acetyl-Pro-Leu-Gly.

[8] = biological target: T2, MMP-3 (stromelysin-1, human recombinant catalytic domain) (Homo sapiens, UniProt P08254); assay: MMP-3 enzymatic assay; assay type: biochemical; settings: reference agents; read-out: Concentration at 50 % Inhibition
T2 construct: MMP-3 (stromelysin-1, human recombinant catalytic domain from Calbiochem Cat. 444217); purchased Calbiochem 444217
T2 sequence (P08254 100-272 limits assumed): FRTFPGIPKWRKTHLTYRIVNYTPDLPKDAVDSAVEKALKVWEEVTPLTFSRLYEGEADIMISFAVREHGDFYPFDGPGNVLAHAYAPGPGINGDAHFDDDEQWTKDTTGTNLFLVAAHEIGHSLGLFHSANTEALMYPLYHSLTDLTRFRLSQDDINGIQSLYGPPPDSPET
Experimental: MMP-3 (stromelysin-1, human recombinant catalytic domain from Calbiochem Cat. 444217) was activated by p-aminophenylmercuric acetate for 60 minutes at 37° C. […] Enzyme activity was determined spectrofluorometrically by measuring the formation of fluorescent (7-methoxycoumarin-4-yl)acetyl-Pro-Leu-Gly.

[9] = biological target: T3, MMP-13 proenzyme (human recombinant) (Homo sapiens, UniProt P45452); assay: MMP-13 enzymatic assay; assay type: biochemical; settings: reference agents; read-out: Concentration at 50 % Inhibition
T3 construct: purchased Calbiochem 444248; host or cells: Sf9 cell
Experimental: MMP-13 proenzyme (human recombinant, expressed in Sf9 cell, Calbiochem Cat. 444248) was activated by p-aminophenylmercuric acetate for 60 minutes at 37° C. […] Enzyme activity was determined spectrofluorometrically by measuring the formation of fluorescent (7-methoxycoumarin-4-yl)acetyl-Pro-Leu-Gly.

**Q.** With `O=C(O[C@@H]1Cc2c(O)cc(O)cc2O[C@@H]1c1ccc(O)c(O)c1)c1cc(O)c(O)c(O)c1` [(−)-Epicatechin gallate] as the molecule, how does the IC50 [1] read?
**A.** 6100 nM

**Q.** With `CCOC(CN1C(=O)[C@](CC(=O)Nc2ccc(C)cc2)(NC(=O)Nc2ccc(C)cc2)c2ccccc21)OCC` [AG-041R] as the molecule, how does the ALP activity (chondrocyte) read?
**A.** suppressed ALP activity

**Q.** And the “expression of type II collagen, aggrecan and BMP-2 genes” value (chondrocyte)?
**A.** up-regulated

**Q.** And the proteoglycan synthesis (chondrocyte)?
**A.** accelerated proteoglycan synthesis

**Q.** For `N[C@H]1C(O)O[C@H](CO)[C@@H](O)[C@@H]1O` (some centres unmarked) [glucosamine], which ALP [2] is on record?
**A.** did not show significant effects

**Q.** And the GAGs synthesis [2]?
**A.** did not show significant effects

**Q.** And the collagen synthesis [2]?
**A.** did not show significant effects

**Q.** What about the “active and latent forms of MMP-2 (68 K, 72 K bands)” value (MMP-2; non-sheared) of the same molecule?
**A.** showed same profiles as controls

**Q.** What about the “active and latent forms of MMP-2 (68 K, 72 K bands)” value (MMP-2; sheared) of the same molecule?
**A.** showed same profiles as controls

**Q.** And the “TIMP (41 K band, >118 K band)” value (TIMP)?
**A.** decrease of TIMP

**Q.** What about the “NO Concentration” value (chondrocytes [3]; Non-sheared, 0 h) of the same molecule?
**A.** 0.40 µM

**Q.** And the “NO Concentration” value (chondrocytes [3]; Non-sheared, 2 h)?
**A.** 0.00 µM

**Q.** And the “NO Concentration” value (chondrocytes [3]; Non-sheared, 4 h)?
**A.** 0.00 µM

**Q.** And the “NO Concentration” value (chondrocytes [3]; Non-sheared, 7 h)?
**A.** 0.00 µM

**Q.** What about the “NO Concentration” value (chondrocytes [3]; Non-sheared, 24 h) of the same molecule?
**A.** 0.00 µM

**Q.** What about the “NO Concentration” value (chondrocytes [3]; Non-sheared, (2 h)) of the same molecule?
**A.** 0.17 µM

**Q.** What about the “NO Concentration” value (chondrocytes [3]; Sheared, 0 h) of the same molecule?
**A.** 4.58 µM

**Q.** What about the “NO Concentration” value (chondrocytes [3]; Sheared, 2 h) of the same molecule?
**A.** 4.75 µM

**Q.** And the “NO Concentration” value (chondrocytes [3]; Sheared, 4 h)?
**A.** 4.58 µM

**Q.** What about the “NO Concentration” value (chondrocytes [3]; Sheared, 7 h) of the same molecule?
**A.** 4.42 µM

**Q.** And the “NO Concentration” value (chondrocytes [3]; Sheared, 24 h)?
**A.** 4.72 µM

**Q.** And the “NO Concentration” value (chondrocytes [3]; Sheared, (2 h))?
**A.** 0.85 µM

**Q.** What about the “inhibition of NO production” value (chondrocytes [3]; fluid induced shear stress 100 rpm (0.82 Pa), two hours) of the same molecule?
**A.** 55%

**Q.** What about the “baseline GAG synthesis” value (chondrocytes [4]; 0.1 mM glucosamine) of the same molecule?
**A.** slightly increased

**Q.** What about the baseline collagen synthesis (chondrocytes [4]; 0.1 mM glucosamine) of the same molecule?
**A.** slightly increased

**Q.** What about the “effect of glucosamine on the activity of herbal preparations” value (chondrocytes [4]; glucosamine 0.1 or 1 mM, preparations 0.01 mg/ml) of the same molecule?
**A.** did not affect the activity of herbal preparations

**Q.** And the ALP (chondrocytes [5]; Naphthol AS-MX phosphate/Fast red)?
**A.** did not show effects

**Q.** And the GAGs (chondrocytes [5]; Safranin O)?
**A.** did not show effects

**Q.** And the Collagen (chondrocytes [5]; Sirius red)?
**A.** did not show effects

**Q.** And the aggrecanase expression (chondrocytes [6]; non-shear-stressed)?
**A.** inhibited aggrecanase expression

**Q.** What about the expression of aggrecan (chondrocytes [6]; non-shear-stressed) of the same molecule?
**A.** inhibited the expression of aggrecan significantly

**Q.** And the BMP-2 expression (chondrocytes [6]; non-sheared)?
**A.** inhibited its expression completely

**Q.** What about the “Col I expression” value (chondrocytes [6]; non-sheared) of the same molecule?
**A.** inhibited Col I expression significantly

**Q.** And the BMP-2 expression (chondrocytes [6]; shear-stressed)?
**A.** showed less activity

**Q.** What about the aggrecanase expression (chondrocytes [6]; shear-stressed) of the same molecule?
**A.** slight increase in aggrecanase expression

**Q.** What about the expression of aggrecan (chondrocytes [6]; shear-stressed) of the same molecule?
**A.** slightly increased aggrecan expression

**Q.** What about the MMP-2 expression (chondrocytes [6]; shear-stressed and non-shear-stressed) of the same molecule?
**A.** not to be affected

**Q.** And the “Col I expression” value (chondrocytes [6]; sheared)?
**A.** no effect

**Q.** With “TIMP-1: tissue inhibitor of matrix metalloproteinase, comparison agent in the MMP assays” as the molecule, how does the IC50 [7] read?
**A.** 3.9 nM

**Q.** And the IC50 [8]?
**A.** 7.6 nM

**Q.** What about the IC50 [9] of the same molecule?
**A.** 6.8 nM

Source: patent US20060216363A1, “Novel herbal composition” (priority 2005, published 2006)
